The text below walks through data of patent US10214546B2, “Btk inhibitors” (MERCK SHARP & DOHME CORP., priority 2014, dated 2019).

The target of assay [1] is BTK enzyme (recombinant full-length BTK, hBTK) (Homo sapiens (Human), UniProt Q06187). The assay can be described thus: BTK enzymatic activity LANCE TR-FRET assay. The format is biochemical. Conditions: 50 pM hBTK, 25 μM ATP, 2 μM biotin-A5-peptide; compound range 1 μM to 0.017 nM; read-out: BTK binding IC50.
The subject of assay [2] is adenosine uptake into HeLa cells. The assay can be described thus: [3H]Adenosine uptake assay in HeLa cells. The format is cell-based. Conditions: compound range 10 μM to 0.032 nM. The procedure, abridged: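 IC50 came from a 4-parameter fit of counts per second over a ten-point, 1:3 titration (final 10 µM down to […]). Compound was applied 30 min at ambient temperature in HBSS/5% FBS before a 500 nM [3H]adenosine solution was added; uptake ran 60 min, read by Cytostar-T proximity scintillation.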

[3] abbreviates: Homo sapiens, HeLa, read-out: ADU inhibition IC50 (nM), [3H]adenosine accumulation in HeLa cells.
The mark [4] stands for this setting: Homo sapiens, HeLa, [3H]adenosine accumulation in HeLa cells, read-out: ADU inhibition IC50.
Setting [5] is: [3H]adenosine accumulation in HeLa cells, read-out: ADU inhibition IC50.

Each structure is given as a SMILES string. Read-outs that look alike come from different tables or passages of the source.

BTK enzyme (recombinant full-length BTK, hBTK), sequence (Q06187 whole entry): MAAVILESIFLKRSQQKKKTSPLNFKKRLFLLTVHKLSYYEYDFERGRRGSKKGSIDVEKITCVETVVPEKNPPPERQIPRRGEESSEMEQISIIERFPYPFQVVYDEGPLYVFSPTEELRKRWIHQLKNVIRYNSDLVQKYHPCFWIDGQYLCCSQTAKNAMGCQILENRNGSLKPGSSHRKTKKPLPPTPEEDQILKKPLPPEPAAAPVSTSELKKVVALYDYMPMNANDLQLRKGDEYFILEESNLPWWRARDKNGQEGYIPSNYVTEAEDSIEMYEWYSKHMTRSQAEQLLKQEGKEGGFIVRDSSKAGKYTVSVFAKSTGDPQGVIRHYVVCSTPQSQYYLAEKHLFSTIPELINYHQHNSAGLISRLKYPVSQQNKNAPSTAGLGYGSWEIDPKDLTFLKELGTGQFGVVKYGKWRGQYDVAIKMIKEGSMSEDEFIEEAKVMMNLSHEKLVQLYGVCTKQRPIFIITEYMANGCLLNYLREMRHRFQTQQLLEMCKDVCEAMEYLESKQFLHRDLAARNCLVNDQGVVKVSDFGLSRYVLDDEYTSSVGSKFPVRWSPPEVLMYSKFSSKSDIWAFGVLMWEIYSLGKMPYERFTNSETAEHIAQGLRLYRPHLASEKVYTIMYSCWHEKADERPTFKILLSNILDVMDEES

With `CC(F)(F)c1cccc([C@@](C)(O)c2ccc(-c3nc([C@@H]4CC[C@H]5CCC(=O)N5C4)n4c(Cl)cnc(N)c34)cc2)c1` [Example 139, (6R,8aS)-6-[8-amino-5-chloro-1-(4-{(1S)-1-[3-(1,1-difluoroethyl)phenyl]-1-hydroxyethyl}phenyl)imidazo[1,5-a]pyrazin-3-yl]hexahydroindolizin-3(2H)-one], the results for the half-maximal inhibitory concentration (IC50) in assay [1] and in assay [2] (setting [3]) were 24.9 nM and 449 nM, respectively.

As for `Nc1nccn2c([C@@H]3CC[C@H]4CCC(=O)N4C3)nc(-c3ccc(C(O)c4cc(C(F)(F)F)ccc4F)cc3)c12` (stereo partly drawn) [Example 125, (6R,8aS)-6-(8-amino-1-(4-{[2-fluoro-5-(trifluoromethyl)phenyl] (hydroxy)methyl}phenyl)imidazo[1,5-a]pyrazin-3-yl]hexahydroindolizin-3(2H)-one], the IC50 – broadly, the concentration that gives 50% inhibition – in assay [1] is 824 nM; in assay [2] (setting [4]), 1180 nM.

For `CC1(C)C[C@@H]2CC[C@@H](c3nc(-c4ccc([C@@](C)(O)c5cccc(C(F)(F)F)c5)cc4)c4c(N)nccn34)CN2C1=O` [Example 7, (6R,8aS)-6-(8-amino-1-(4-((R)-1-hydroxy-1-(3-(trifluoromethyl)phenyl)ethyl)phenyl)imidazo[1,5-a]pyrazin-3-yl)-2,2-dimethylhexahydroindolizin-3(2H)-one], the 50% inhibitory concentration (IC50) in assay [1] is 0.82 nM; in assay [2] (setting [4]) it was 2790 nM.

On to `CC(C)c1cccc([C@](C)(O)c2ccc(-c3nc([C@@H]4CC[C@H]5CCC(=O)N5C4)n4ccnc(N)c34)cc2)c1` [Example 75, (6R,8aS)-6-[8-amino-1-(4-{(1R)-1-hydroxy-1-[3(1-methylethyl)phenyl]ethyl}phenyl)imidazo[1,5-a]pyrazin-3-yl]hexahydroindolizin-3(2H)-one], for which the IC50 in assay [1] is 0.21 nM; in assay [2] (setting [4]), 2010 nM.

As for `CC1OC(=O)N2C[C@H](c3nc(-c4ccc([C@@](C)(O)c5cccc(C(F)(F)F)c5)cc4)c4c(N)nccn34)OC[C@@H]12` (stereo partly drawn) [Example 8, (6R,8aS)-6-(8-amino-1-(4-((R)-1-hydroxy-1-(3-(trifluoromethyl)phenyl)ethyl)phenyl)imidazo[1,5-a]pyrazin-3-yl)-1-methyltetrahydrooxazolo[4,3-c][14]oxazin-3(1H)-one], the 50% inhibitory concentration (IC50) was 20.6 nM in assay [1] and 5080 nM in assay [2] (setting [5]).

With `CC(F)(F)c1cccc([C@](C)(O)c2ccc(-c3nc([C@@H]4CC[C@H]5CCC(=O)N5C4)n4c(Cl)cnc(N)c34)cc2)c1` [Example 140], the IC50 in assay [1] came out at 0.22 nM; in assay [2] (setting [3]) it was 1200 nM.

Consider `CC(O)(c1ccc(-c2nc([C@@H]3CC[C@H]4CCC(=O)N4C3)n3ccnc(N)c23)cc1)c1cccc(OC(F)F)c1` (stereo partly drawn) [Example 148, (6R,8aS)-6-[8-amino-1-(4-{1-[3-(difluoromethoxy)phenyl]-1-hydroxyethyl}phenyl)imidazo[1,5-a]pyrazin-3-yl]hexahydroindolizin-3(2H)-one], for which the IC50 in assay [1] came to 0.2 nM; in assay [2] (setting [5]), 2990 nM.

For the molecule `CC(O)(c1cccc(C(F)F)c1)c1ccc(-c2nc([C@@H]3CC[C@@H]4N(C3)C(=O)CC4(C)C)n3ccnc(N)c23)c(F)c1` (stereo partly drawn) [Example 200, (6R,8aS)-6-[8-amino-1-(4-{1-[3-(difluoromethyl)phenyl]-1-hydroxyethyl}-2-fluorophenyl)imidazo[1,5-a]pyrazin-3-yl]-1,1-dimethylhexahydroindolizin-3(2H)-one], the IC50 worked out at 53.8 nM in assay [1] and 230 nM in assay [2] (setting [5]).

For `Nc1nccn2c([C@@H]3CC[C@H]4CCC(=O)N4C3)nc(-c3ccc([C@](O)(CO)c4cccc(C(F)(F)F)c4)cc3)c12` [Example 107, (6R,8aS)-6-[8-amino-1-(4-{(1R)-1,2-dihydroxy-1-[3-(trifluoromethyl)phenyl]ethyl}phenyl)imidazo [1,5-a]pyrazin-3-yl]hexahydroindolizin-3(2H)-one], the concentration for half-maximal inhibition (IC50) in assay [1] turned out to be 939 nM; in assay [2] (setting [4]) it was 530 nM.

As to `C[C@](O)(c1ccc(-c2nc([C@@H]3CC[C@H]4CCC(=O)N4C3)n3ccnc(N)c23)cc1)c1cc(C(F)(F)F)ccn1` [Example 36], the IC50 in assay [1] came out at 1000 nM; in assay [2] (setting [4]), 704 nM.

Turning to `C[C@@](O)(c1ccc(-c2nc([C@@H]3CC[C@H]4CCC(=O)N4C3)n3c(Cl)cnc(N)c23)cc1)c1cccc(CC(F)(F)F)c1` [Example 121, (6R,8aS)-6-[8-amino-5-chloro-1-(4-{(1R)-1-hydroxy-1-[3-(2,2,2-trifluoroethyl)phenyl]ethyl}phenyl)imidazo[1,5-a]pyrazin-3-yl]hexahydroindolizin-3(2H)-one], the values for the IC50 in assay [1] and in assay [2] (setting [4]) were 0.18 nM and 1940 nM, respectively.

As to `CCC(O)(c1ccc(-c2nc([C@@H]3CC[C@H]4CCC(=O)N4C3)n3ccnc(N)c23)cc1)c1cccc(C(F)(F)F)c1` (stereo partly drawn) [Example 61, (6R,8aS)-6-[8-amino-1-(4-{1-hydroxy-1-[3-(trifluoromethyl)phenyl]propyl}phenyl)imidazo [1,5-a]pyrazin-3-yl]hexahydroindolizin-3(2H)-one], the figures for the IC50 in assay [1] and in assay [2] (setting [5]) were 72 nM and 1710 nM, respectively.

Consider `Cc1cc([C@](C)(O)c2cccc(C(F)(F)F)c2)ccc1-c1nc([C@@H]2CC[C@H]3CCC(=O)N3C2)n2ccnc(N)c12` [Example 104, (6R,8aS)-6-[8-amino-1-(4-{(1S)-1-hydroxy-1-[3-(trifluoromethyl)phenyl]ethyl}-2-methylphenyl)imidazo [1,5-a]pyrazin-3-yl]hexahydroindolizin-3(2H)-one], for which the IC50 in assay [1] amounted to 10.7 nM; in assay [2] (setting [4]), 1700 nM.

With `C[C@@](O)(c1ccc(-c2nc([C@@H]3CC[C@H]4C(C(F)(F)F)CC(=O)N4C3)n3ccnc(N)c23)cc1)c1cccc(C(F)F)c1` (stereo partly drawn) [Example 182, (1R,6R,8aS)-6-[8-amino-1-(4-{(1R)-1-[3-(difluoromethyl)phenyl]-1-hydroxyethyl}phenyl)imidazo[1,5-a]pyrazin-3-yl]-1-(trifluoromethyl) hexahydroindolizin-3(2H)-one], the IC50 in assay [1] came out at 0.43 nM; in assay [2] (setting [4]), 2800 nM.

For the molecule `C[C@@](O)(c1ccc(-c2nc([C@@H]3CC[C@H]4CCC(=O)N4C3)n3ccnc(N)c23)cc1)c1cccc(C#N)c1` [Example 85, 3-[(1R)-1-(4-{8-amino-3-[(6R,8aS)-3-oxooctahydroindolizin-6-yl]imidazo[1,5-a]pyrazin-1-yl}phenyl)-1-hydroxyethyl]benzonitrile], the concentration for half-maximal inhibition (IC50) is 23.4 nM in assay [1] and 3530 nM in assay [2] (setting [4]).

As to `CC1(C)C[C@@H]2CC[C@@H](c3nc(-c4ccc(C(C)(O)c5cccc(C(F)(F)F)c5)cc4F)c4c(N)nccn34)CN2C1=O` (stereo partly drawn) [Example 197, (6R,8aS)-6-[8-amino-1-(2-fluoro-4-{1-hydroxy-1-[3-(trifluoromethyl)phenyl]ethyl}phenyl)imidazo [1,5-a]pyrazin-3-yl]-2,2-dimethylhexahydroindolizin-3(2H)-one], the IC50 in assay [1] came out at 2.5 nM; in assay [2] (setting [5]), 3490 nM.

Turning to `CC(C)c1cccc([C@@](C)(O)c2ccc(-c3nc([C@@H]4CC[C@H]5CCC(=O)N5C4)n4ccnc(N)c34)cc2)c1` [Example 74, (6R,8aS)-6-[8-amino-1-(4-{(1S)-1-hydroxy-1-[3(1-methylethyl)phenyl]ethyl}phenyl)imidazo[1,5-a]pyrazin-3-yl]hexahydroindolizin-3(2H)-one], the IC50 was 15 nM in assay [1] and 463 nM in assay [2] (setting [4]).
